# Reference: EP1886694A1, “Peroral formulation of dienogest and ethinylestradiol for contraception” (priority 2006, dated 2008)
# What was measured:
# Ovulationshemmung = assay: optimal dose for reliable ovulation inhibition; assay type: in vivo; settings: mikronisiert, mittlere Teilchengröße ca. 3 µm
# Protocol: Als schwerlöslicher Wirkstoff wird Dienogest üblicherweise mikronisiert mit einer mittleren Teilchengröße von ca. 3 µm eingesetzt. Mit dieser Partikelgrößenverteilung wurde als optimale Dosis für eine sichere Ovulationshemmung 2 mg Dienogest ermittelt.
# [1] = Einzeldosis; mittlere Partikelgröße 3,7 µm compared with 22 µm; cited from earlier work
Compound,optimale Dosis für eine sichere Ovulationshemmung (Ovulationshemmung),Plasmaspiegel [1]
"C[C@]12CCC3=C4CCC(=O)C=C4CC[C@H]3[C@@H]1CC[C@@]2(O)CC#N [Dienogest, 17α-Cyanomethyl-17-β-hydroxyestra-4,9-dien-3on]",2 mg,
C[C@H]1O[C@@H](O[C@H]2[C@@H](O)C[C@H](O[C@H]3[C@@H](O)C[C@H](O[C@H]4CC[C@@]5(C)[C@H](CC[C@@H]6[C@@H]5C[C@@H](O)[C@]5(C)[C@@H](C7=CC(=O)OC7)CC[C@]65O)C4)O[C@@H]3C)O[C@@H]2C)C[C@H](O)[C@@H]1O [Digoxin],,fast doppelt so hohe
